From the NIST ThermoML archive (doi:10.1021/je060271a)
Where “and” joins values, the source holds several entries; their conditions need not be identical. Identical values can stand only once.

Settings: Liquid, Vibrating tube method

CCCCCC(=O)OCC(COC(=O)CCCCC)(COC(=O)CCCCC)COC(=O)CCCCC [pentaerythritol tetrahexanoate]
Settings	mass density
323.14 K, 9872.1 kPa	979.5 kg/m3
323.14 K, 9877.7 kPa	979.4 kg/m3
323.14 K, 9882.8 kPa	979.5 kg/m3
323.14 K, 9890.7 kPa	979.4 kg/m3
323.14 K, 10279 kPa	979.8 kg/m3
323.14 K, 10299 kPa	979.7 kg/m3
323.14 K, 10325 kPa	979.8 kg/m3
323.14 K, 10354 kPa	979.8 kg/m3
323.14 K, 10377 kPa	979.8 kg/m3
323.14 K, 10409 kPa	979.8 kg/m3
323.14 K, 10437 kPa	979.7 kg/m3
323.14 K, 10641 kPa	980 kg/m3
323.14 K, 10798 kPa	980.1 kg/m3
323.14 K, 10825 kPa	980 kg/m3
323.14 K, 10850 kPa	980 kg/m3
323.14 K, 10879 kPa	980.1 kg/m3
323.14 K, 10908 kPa	980.2 kg/m3
323.14 K, 10930 kPa	980.1 kg/m3
323.14 K, 11644 kPa	980.6 kg/m3
323.14 K, 11671 kPa	980.7 kg/m3
323.14 K, 11694 kPa	980.7 kg/m3
323.14 K, 11721 kPa	980.6 kg/m3
323.14 K, 11748 kPa	980.6 kg/m3
323.14 K, 11771 kPa	980.7 kg/m3
323.14 K, 11798 kPa	980.7 kg/m3
323.14 K, 11821 kPa	980.9 kg/m3
323.14 K, 11872 kPa	980.8 kg/m3
323.14 K, 13057 kPa	981.6 kg/m3
323.14 K, 13085 kPa	981.6 kg/m3
323.14 K, 13108 kPa	981.6 kg/m3
323.14 K, 13136 kPa	981.6 kg/m3
323.14 K, 13163 kPa	981.7 kg/m3
323.14 K, 13448 kPa	981.9 kg/m3
323.14 K, 13476 kPa	981.9 kg/m3
323.14 K, 13500 kPa	982 kg/m3
323.14 K, 13529 kPa	981.8 kg/m3
323.14 K, 13553 kPa	981.9 kg/m3
323.14 K, 13581 kPa	982 kg/m3
323.14 K, 13609 kPa	981.9 kg/m3
323.14 K, 13633 kPa	982 kg/m3
323.14 K, 13661 kPa	982 kg/m3
323.14 K, 13684 kPa	982 kg/m3
323.14 K, 13711 kPa	982.1 kg/m3
323.14 K, 13739 kPa	982.1 kg/m3
323.14 K, 13763 kPa	982 kg/m3
323.14 K, 13791 kPa	982.1 kg/m3
323.14 K, 13814 kPa	982 kg/m3
323.14 K, 13841 kPa	982.2 kg/m3
323.14 K, 13868 kPa	982.2 kg/m3
323.14 K, 14047 kPa	982.2 kg/m3
323.14 K, 14070 kPa	982.3 kg/m3
323.14 K, 14098 kPa	982.2 kg/m3
323.14 K, 14122 kPa	982.3 kg/m3
323.14 K, 14149 kPa	982.4 kg/m3
323.14 K, 14177 kPa	982.3 kg/m3
323.14 K, 14200 kPa	982.3 kg/m3
323.14 K, 14229 kPa	982.4 kg/m3
323.14 K, 14257 kPa	982.3 kg/m3
323.14 K, 14281 kPa	982.5 kg/m3
323.14 K, 14309 kPa	982.5 kg/m3
323.14 K, 14333 kPa	982.4 kg/m3
323.14 K, 14362 kPa	982.5 kg/m3
323.14 K, 14385 kPa	982.3 kg/m3
323.14 K, 14412 kPa	982.5 kg/m3
323.14 K, 14435 kPa	982.6 kg/m3
323.14 K, 14462 kPa	982.5 kg/m3
323.14 K, 14491 kPa	982.5 kg/m3
323.14 K, 14542 kPa	982.6 kg/m3
323.14 K, 14860 kPa	982.8 kg/m3
323.14 K, 14888 kPa	982.8 kg/m3
323.14 K, 14912 kPa	982.7 kg/m3
323.14 K, 14941 kPa	982.8 kg/m3
323.14 K, 14965 kPa	982.8 kg/m3
323.14 K, 14994 kPa	982.8 kg/m3
323.14 K, 15019 kPa	982.8 kg/m3
323.14 K, 15047 kPa	982.8 kg/m3
323.14 K, 15070 kPa	982.8 kg/m3
323.14 K, 15098 kPa	983 kg/m3
323.14 K, 15126 kPa	982.9 kg/m3
323.14 K, 15150 kPa	982.9 kg/m3
323.14 K, 15177 kPa	983.1 kg/m3
323.14 K, 15205 kPa	983 kg/m3
323.14 K, 15229 kPa	983 kg/m3
323.14 K, 32387 kPa	993.4 kg/m3
323.14 K, 32388 kPa	993.7 kg/m3 and 993.6 kg/m3 and 993.5 kg/m3
323.14 K, 32389 kPa	993.5 kg/m3 and 993.6 kg/m3
323.14 K, 32390 kPa	993.5 kg/m3 and 993.6 kg/m3
323.14 K, 32391 kPa	993.5 kg/m3
323.14 K, 32392 kPa	993.6 kg/m3
323.14 K, 32393 kPa	993.5 kg/m3
323.14 K, 32394 kPa	993.5 kg/m3
323.14 K, 32395 kPa	993.5 kg/m3
323.14 K, 32396 kPa	993.5 kg/m3 and 993.6 kg/m3
323.14 K, 32398 kPa	993.5 kg/m3
323.14 K, 32399 kPa	993.5 kg/m3
323.14 K, 32400 kPa	993.6 kg/m3
323.14 K, 32401 kPa	993.6 kg/m3
323.14 K, 32402 kPa	993.4 kg/m3
323.14 K, 32403 kPa	993.5 kg/m3
323.14 K, 32404 kPa	993.5 kg/m3
323.15 K, 370.6 kPa	972.9 kg/m3
323.15 K, 372.9 kPa	972.9 kg/m3
323.15 K, 374.8 kPa	973 kg/m3
323.15 K, 377 kPa	972.9 kg/m3
323.15 K, 379.5 kPa	972.9 kg/m3
323.15 K, 381.7 kPa	973 kg/m3
323.15 K, 444.1 kPa	973 kg/m3
323.15 K, 447.6 kPa	973 kg/m3
323.15 K, 450.5 kPa	973 kg/m3
323.15 K, 453.3 kPa	973 kg/m3
323.15 K, 456.4 kPa	973.1 kg/m3
323.15 K, 460.3 kPa	973 kg/m3
323.15 K, 463.4 kPa	973 kg/m3
323.15 K, 466.7 kPa	973 kg/m3
323.15 K, 470.7 kPa	973 kg/m3
323.15 K, 473.8 kPa	972.9 kg/m3
323.15 K, 520.2 kPa	973 kg/m3
323.15 K, 524.4 kPa	973.1 kg/m3
323.15 K, 528.6 kPa	973.1 kg/m3
323.15 K, 532.7 kPa	973 kg/m3
323.15 K, 536.7 kPa	973 kg/m3
323.15 K, 542.1 kPa	973 kg/m3
323.15 K, 546.3 kPa	972.9 kg/m3
323.15 K, 551.3 kPa	973.1 kg/m3
323.15 K, 555.7 kPa	973.2 kg/m3
323.15 K, 560.2 kPa	973.1 kg/m3
323.15 K, 564.7 kPa	973 kg/m3
323.15 K, 567.1 kPa	973 kg/m3
323.15 K, 567.3 kPa	973.1 kg/m3
323.15 K, 568.2 kPa	973 kg/m3
323.15 K, 569.7 kPa	973.1 kg/m3
323.15 K, 571.8 kPa	973.1 kg/m3
323.15 K, 573.7 kPa	973.1 kg/m3
323.15 K, 575.6 kPa	973.1 kg/m3
323.15 K, 592.7 kPa	973.1 kg/m3
323.15 K, 594.8 kPa	973.2 kg/m3
323.15 K, 596.6 kPa	973.1 kg/m3
323.15 K, 598.6 kPa	973.1 kg/m3
323.15 K, 601.2 kPa	973 kg/m3
323.15 K, 603.4 kPa	973 kg/m3
323.15 K, 605.2 kPa	973.1 kg/m3
323.15 K, 607.4 kPa	973.1 kg/m3
323.15 K, 609.9 kPa	973 kg/m3
323.15 K, 612 kPa	973.1 kg/m3
323.15 K, 614 kPa	973.1 kg/m3
